Reference: patent US7026327B2, “Pyrimidine derivatives useful as selective COX-2 inhibitors” (Glaxo Group Limited, priority 2001, dated 2006)
Read-outs that look alike come from different tables or passages of the source.

How the values were obtained:
COX-1 [1] = target: T1, COX-1 (Homo sapiens, UniProt P23219); assay: Microsomal assay, COX-1; type: biochemical
human COX-2 = target: T2, human COX-2 (Homo sapiens, UniProt P35354); assay: Cell based assay, COS cells stably transfected with human COX-2, PGE2 release
T2 construct: expressed in transfected cells; host or cells: COS cells, stably transfected
T2 sequence (P35354 18-604): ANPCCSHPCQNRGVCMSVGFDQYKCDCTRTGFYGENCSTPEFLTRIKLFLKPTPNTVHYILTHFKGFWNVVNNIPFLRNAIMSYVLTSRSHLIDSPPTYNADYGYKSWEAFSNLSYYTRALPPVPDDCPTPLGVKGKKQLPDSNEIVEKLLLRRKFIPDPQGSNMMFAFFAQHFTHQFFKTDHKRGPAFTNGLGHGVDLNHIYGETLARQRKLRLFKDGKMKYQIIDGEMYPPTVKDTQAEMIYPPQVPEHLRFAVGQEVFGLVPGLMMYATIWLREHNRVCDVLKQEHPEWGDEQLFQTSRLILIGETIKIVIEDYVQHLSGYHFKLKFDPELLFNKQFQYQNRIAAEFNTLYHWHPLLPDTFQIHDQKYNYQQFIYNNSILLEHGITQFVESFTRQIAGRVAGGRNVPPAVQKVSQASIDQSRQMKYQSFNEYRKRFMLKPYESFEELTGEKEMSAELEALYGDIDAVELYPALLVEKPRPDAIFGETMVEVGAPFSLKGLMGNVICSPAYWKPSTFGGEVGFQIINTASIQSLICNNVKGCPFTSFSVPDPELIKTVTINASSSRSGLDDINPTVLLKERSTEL
Protocol: (§1) Inhibitory activity against human COX-1 and COX-2 was assessed in COS cells which had been stably transfected with cDNA for human COX-1 and human COX-2. 24 Hours prior to experiment, COS cells were transferred from the 175 cm^2 flasks in which they were grown, onto 24-well cell culture plates using the following procedure. The incubation medium (Dulbecco's modified eagles medium (DMEM) supplemented with heat-inactivated foetal calf serum (10% v/v), penicillin (100 IU/ml), streptomycin (100 μg/ml) and geneticin (600 μg/ml)) was removed from a flask of confluent cells (1 flask at confluency contains approximately 1×10^7 cells). 5 ml of phosphate buffered saline (PBS) was added to the flask to wash the cells. Having discarded the PBS, cells were then incubated with 5 ml trypsin for 5 minutes in an incubator (37°). The flask was then removed from the incubator and 5 ml of fresh incubation medium was added. The contents of the flask was transferred to a 250 ml sterile container and the volume of incubation medium subsequently made up to 100ml. 1 ml cell suspension was pipetted into each well of 4×24-well cell culture plates. The plates were then placed in an incubator (37° C., 95% air/5% CO2) overnight. If more than 1 flask of cells were required, the cells from the individual flasks were combined before being dispensed into the 24-well plates.
(§2) Following the overnight incubation, the incubation medium was completely removed from the 24-well cell culture plates and replaced with 250 μl fresh DMEM (37° C.). The test compounds were made up to 250× the required test concentration in DMSO and were added to the wells in a volume of 1 μl. Plates were then mixed gently by swirling and then placed in an incubator for 1 hour (37° C., 95% air/5% CO2). Following the incubation period, 10 μl of arachidonic acid (750 μM) was added to each well to give a final arachidonic acid concentration of 30 μM. Plates were then incubated for a further 10 minutes, after which the incubation medium was removed from each well of the plates and stored at −20° C., prior to determination of prostaglandin E2 (PGE2) levels using enzyme immunoassay. […] The selectivity ratio of inhibition of COX-1 versus COX-2 was calculated by comparing respective IC50 values.

COX-1 [2] = target: T1, COX-1; assay: Cell based assay, COS cells stably transfected with human COX-1, PGE2 release; design: expressed in transfected cells; host or cells: COS cells, stably transfected
Protocol: as §1, §2

microsomal h-COX2 = target: T3, microsomal h-COX2 (Homo sapiens, UniProt P35354); assay: Microsomal assay, h-COX2 microsomal preparation from baculovirus infected SF9 cells; type: biochemical
T3 construct: made in house; host or cells: baculovirus infected SF9 cells (microsomal preparation)
T3 sequence (P35354 18-604): T2 sequence (P35354 18-604)
Protocol: Inhibitory activity against microsomal h-COX2 was assessed against a microsomal preparation from baculovirus infected SF9 cells. An aliquot of microsomal preparation was thawed slowly on ice and a 1/40,000 dilution prepared from it into the assay buffer (sterile water, degassed with argon containing 100 mM HEPES (pH 7.4), 10 mM EDTA (pH7.4), 1 mM phenol, 1 mM reduced glutathione, 20 mg/ml gelatin and 0.001 mM Hematin). Once diluted the enzyme solution was then sonicated for 5 seconds (Branson sonicator, setting 4, 1 cm tip) to ensure a homogeneous suspension. 155 μl enzyme solution was then added to each well of a 96-well microtitre plate containing either 5 μl test compound (40× required test concentration) or 5 μl DMSO for controls. Plates were then mixed and incubated at room temperature for 1 hour. Following the incubation period, 40 μl of 0.5 μM arachidonic acid was added to each well to give a final concentration of 0.1 μM. Plates were then mixed and incubated for exactly 10 minutes (room temperature) prior to addition of […] HCl (hydrochloric acid) to each well to stop the reaction. 25 μl of 1 M NaOH (sodium hydroxide) was then added to each well to neutralise the solution prior to determination of PGE2 levels by enzyme immunoassay (EIA).

[3] = microsomal assay, PGE2 by EIA, 0.1 μM arachidonic acid, read-out: COX-2: IC50

T1 sequence (P23219 24-599): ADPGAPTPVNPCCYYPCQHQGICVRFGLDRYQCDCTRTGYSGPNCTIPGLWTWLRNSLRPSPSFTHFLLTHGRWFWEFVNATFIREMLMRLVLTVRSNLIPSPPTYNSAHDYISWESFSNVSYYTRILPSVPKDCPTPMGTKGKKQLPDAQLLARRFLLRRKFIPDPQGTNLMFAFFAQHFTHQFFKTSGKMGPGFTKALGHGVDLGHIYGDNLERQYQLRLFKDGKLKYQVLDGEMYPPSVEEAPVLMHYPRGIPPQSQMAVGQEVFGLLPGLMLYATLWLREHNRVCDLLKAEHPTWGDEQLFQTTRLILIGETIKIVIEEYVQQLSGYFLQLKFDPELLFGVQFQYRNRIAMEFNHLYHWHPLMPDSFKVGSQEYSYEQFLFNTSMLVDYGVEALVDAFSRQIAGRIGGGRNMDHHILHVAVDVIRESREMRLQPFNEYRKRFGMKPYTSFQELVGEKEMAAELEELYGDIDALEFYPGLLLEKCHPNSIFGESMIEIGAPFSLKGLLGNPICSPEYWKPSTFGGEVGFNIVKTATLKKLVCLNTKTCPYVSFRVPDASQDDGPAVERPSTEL

| Structure (SMILES) | IC50 (COX-1 [1]) [nM] | IC50 (human COX-2) [nM] | IC50 (COX-1 [2]) [nM] | IC50 (microsomal h-COX2; [3]) [nM] | further results |
| --- | --- | --- | --- | --- | --- |
| CS(=O)(=O)c1ccc(-c2cc(C(F)(F)F)nc(OC3CCCCC3)n2)cc1 [Example 8, 2-(cyclohexyloxy)-4-[4-(methylsulfonyl)phenyl]-6-(trifluoromethyl)pyrimidine] | 1860 |  |  |  |  |
| CS(=O)(=O)c1ccc(-c2cc(C(F)(F)F)nc(Oc3ccc(F)cc3)n2)cc1 [Example 1, 2-(4-Fluorophenoxy)-4-[4-(methylsulfonyl)phenyl]-6-(trifluoromethyl)pyrimidine] |  | < 1 | 81300 |  |  |
| CS(=O)(=O)c1ccc(-c2cc(C(F)(F)F)nc(OCC3CCCC3)n2)cc1 [Example 9] |  |  |  |  | IC50 (microsomal h-COX2): 22 nM |
| CCCCOc1nc(-c2ccc(S(C)(=O)=O)cc2)cc(C(F)(F)F)n1 [Example 10, 2-Butoxy-4-[4-(methylsulfonyl)phenyl]-6-(trifluoromethyl)pyrimidine] |  |  |  | 22 |  |
| CS(=O)(=O)c1ccc(-c2cc(C(F)(F)F)nc(Oc3ccc(Br)cc3)n2)cc1 [Example 5] |  | 6 | 61400 |  |  |

Further lines, with some results ahead:

| IC50 (COX-1 [1]) [nM] | IC50 (human COX-2) [nM] | IC50 (COX-1 [2]) [nM] | IC50 (microsomal h-COX2; [3]) [nM] | Structure (SMILES) | further results |
| --- | --- | --- | --- | --- | --- |
| 79900 |  |  | < 10 | CS(=O)(=O)c1ccc(-c2cc(C(F)(F)F)nc(Oc3cncc(Cl)c3)n2)cc1 [Example 7, 2-[(5-chloropyridin-3-yl)oxy]-4-[4-(methylsulfony)phenyl]-6-(trifluoromethyl)pyrimidine] |  |
| 3750 |  |  | < 10 | Cc1ccc(Oc2nc(-c3ccc(S(C)(=O)=O)cc3)cc(C(F)(F)F)n2)cc1 [Example 6] |  |
|  | 23 | 9670 |  | CS(=O)(=O)c1ccc(-c2cc(C(F)(F)F)nc(Oc3ccc(F)c(F)c3)n2)cc1 [Example 2] |  |
|  | 4 | 2920 |  | COc1ccc(Oc2nc(-c3ccc(S(C)(=O)=O)cc3)cc(C(F)(F)F)n2)cc1 [Example 3] |  |
